For data set [1] the following is noted: cited from earlier work; for solubilities: unit inferred.
Data set [2] concerns adhesion formation. The conditions noted are these: 60 min pneumoperitoneum, 15 mmHg, humidified, 37° C.; scored one week later; average of four sites; listed as pure CO2.
The test system of data set [3] is adhesion formation. The conditions noted are these: laparoscopic mouse model, background; cited from earlier work.
Data set [4] deals with adhesion formation. The data set is described as follows: open abdomen for 60 min with gas flow deep in the pelvis, adhesions. It counts as in vivo. The conditions noted are these: gas flow of 1 l/min deep in the pelvis; control group with a lesion only.
The test system of the next data set is human patients. The data set is described as follows: clinical trials of laparoscopy with conditioned pneumoperitoneum. It counts as in vivo. The conditions noted are these: first trial, deep endometriosis surgery; trial group also 5 mg dexamethasone and hyalobarrier gel, humidification, cooling 30-32° C. On the procedure:
In a further set of trials, human patients were treated operatively by laparoscopy using a pneumoperitoneum with 86% CO2, 10% of N2O and 4% of O2 in combination with full humidification and with a temperature maintained at 31° C. to 32° C. when entering the patient (conditioned group). Furthermore the peritoneal cavity was cooled to 30-32° C. using sprinkling of 2 ml/min of saline at room temperature and rinsing was performed using slightly heparinised saline. A comparison was made with a standard treatment, whereby a pneumoperitoneum with 100% CO2 was used (non-conditioned group). Flow rates were between 3 and 10 liter/min. In a first trial, patients were undergoing deep endometriosis surgery. The trial group received in addition 5 mg of dexamethasone and a hyalobarrier gel at the end of the procedure. […] A number of parameters were monitored such as postoperative pain, time to first flatus and time to first stools, and the CO2 resorbtion during pneumoperitoneum. […] In both trials CO2 resorbtion during surgery, postoperative pain assessed by VAS scales and pain killer intake and time to first flatus and time to first stools were monitored.
In both trials post operative pain was evaluated at 3 hours, 12 hours and daily for 4 days after surgery using a VAS scale (Visual Analog Pain Scale) and using the amount of pain killer intake. […]

Structures are written as SMILES. ≈ marks a conversion by molar mass, not a printed value. Where “and” joins values, the source holds several entries; their conditions need not be identical. Equal values may be shown once.

As for `[N-]=[N+]=O` [N2O, nitrous oxide], in data set [1], the solubility in water is 1500 µg/mL (≈ 34.1 mM) and the solubilities was 1.5 g/L.
For the molecule `O=O` [Oxygen, oxygen], in data set [1], the solubility in water was 39.1 µg/mL (≈ 1.22 mM) and the solubilities was 0.0232 g/L.
Regarding `O=C=O` [CO2, carbon dioxide], in data set [1], the solubility in water is 1450 µg/mL (≈ 32.9 mM) and the solubilities was 1.45 g/L. Further, in the data set on adhesion formation [2], the “quantitative adhesion score (proportion of lesion covered by adhesions)” value was 70±10% and 74±9% and 77±9%; the “total adhesion score (sum of extent, type, tenacity)” value is 30±4 and 31±4 and 32±4. Moreover, the adhesion formation result with adhesion formation [3] is given as “increase adhesions five fold”. Moreover, the “adhesions after 60 min open abdomen” value in the data set with adhesion formation [4] is given as “decrease of these adhesions”. In the data set on human patients, the “adhesion formation checked by repeat laparoscopy” value is “severe adhesions”.
